Reference: patent US20030153611A1, “1,3-Diarylprop-2-en-1-ones, compositions containing them and use thereof” (AVENTIS PHARMA S.A., priority 2001, published 2003)
Structures can show the parent of a compound that is named as a salt.

Assays:
HDMEC cells = experiment: Detachment effect on HDMEC endothelial cells; assay type: cell-based, Human; settings: 1 μM, treatment for two hours
Text: A test to determine the detachment of endothelial cells was established in order to select the products on the basis of their “in vitro” activity. This test for determining the endothelial cell detachment is characterized in that the endothelial cells, inoculated in plates which are coated at the bottom with a binder, e.g., chosen from gelatin, fibronectin or vitronectin, after culturing, are supplemented with a medium containing the test compound, and the cells are then labeled with a fluorescent substance, the cells which become detached are removed by washing and the fluorescence of the remaining cells is counted in a fluorimeter.
This test consists in measuring the detachment of endothelial cells cultured on substrates based on a binder, e.g., chosen from fibronectin, vitronectin and gelatin. One day after inoculating the cells in plates containing 96 wells, for example, the culture medium is replaced with a medium containing the test compound in the absence of serum. The same preparation is prepared six times at three different concentrations ([…]) and the control without addition of antivascular product is prepared six times. After treatment for two hours with the test substance, the cells are labeled with calcein-AM (1.6 μg/ml) in a culture medium supplemented with 0.1% BSA. The cells which become detached are removed by washing with the culture medium containing 0.1% bovine serum albumin; 100 μl of medium are added to each well. The fluorescence of the remaining cells is counted in a fluorimeter. The data obtained are expressed relative to the control (untreated cells).
(§1) The assessment of the detachment of the endothelial cells in vitro is determined in the following way. HDMEC cells (Human Dermal Microvascular Endothelial Cells, Promocell, c-122102) are cultured in an ECGM-MV medium containing 5% fetal calf serum, growth factors (EGF 10 ng/ml, hydrocortisone 1 μg/ml, 0.4% growth supplement with heparin) and antibiotics (amphotericin 50 ng/ml, gentamicin 50 μg/ml). For the detachment test, the HDMECs are inoculated at a rate of 5 000 cells in clear-bottomed 96-well plates (Costar) precoated with fibronectin (10 μg/ml) or vitronectin (1 μg/ml) or gelatin. Twenty-four hours later, the culture medium is replaced with 0.1% BSA ECGM-MV medium containing the indicated products. The test concentrations are 0.1-0.3 and 1 μM for each product. After treatment for two hours, the cells are labeled for 1 hour with calcein (1.6 μg/ml, Molecular Probes) in 0.1% BSA ECGM-MV medium. The detached cells are then removed by washing with 0.1% BSA ECGM-MV medium; 100 μl of medium are added to each well. The fluorescence of the cells which remain attached to the substratum of the well is counted using a fluorimeter, Spectrafluor Plus (Tecan, excitation at 485 nm, and emission at 535 nm). The data are the average of six different samples and are expressed as a percentage of the control (untreated cells).
A cell detachment effect of greater than or equal to 15% is considered as significant.
as §1, with “(amphotericine” for “(amphotericin”, “The detached cells are then removed by washing with 0.1% BSA ECGM-MV medium; 100 μl of medium are added to each well. The fluorescence of the cells which remain attached to the substratum of the well is counted using a fluorimeter, Spectrafluor Plus (Tecan, excitation at 485 nm, and emission at 535 nm). The data are the average of six different samples and are expressed as a percentage of the control (untreated cells).” left out

[1] = test system: C51 murine adenocarcinoma; experiment: Assessment of the tumor necrosis in vivo; settings: intravenous injection, 24 hours after treatment, female BALB/c mice
Text: Mice are bred by IFFA-CREDO (Domaine des Oncins, 69210 L'Arbresle, France) from a race obtained by Jackson Laboratories, Bar Harbor, Me., USA, or by Charles River France (76410 St Aubin les Elbeuf, France) from a race obtained by Charles River, USA. The mice initially weigh more than 18 g at the start of the test. They have free access to food (UAR reference 113, Villemoisson, 91160 Epinay sur Orge, France) and water.
The tumors used are currently transplanted in our laboratories. All these tumors are at the Frederick Cancer Research Facility (Frederick, Md., USA) in the frozen tumor deposit of the National Cancer Institute (NCl) or at the American Type Culture Collection (ATCC, Rockville, Md., USA).
The tumor transplantation techniques, the chemotherapy and the data analysis are presented in detail (Corbett et al. 1982a; Corbett et al., 1982b).
To summarize, the animals required for an experiment are assembled and implanted bilaterally on day 0 (zero).
The growth of the solid tumors develops freely up to the desired size. The mice are then treated by intravenous injection of a test compound in solution.
The sampling of tumors is usually (but not necessarily) carried out 24 hours after the treatment.
The mice are killed by […]. The implanted tumors, along with the skin covering them and the neighboring tissues, are collected and stored in 10% formaldehyde (v/v) (Carlo Erba, Val de Reuil, France).
The samples are then treated, sectioned, stained with hematoxylin, eosin and saffron yellow, and are then examined […]. The tumor necrosis (necrosis±degeneration) is assessed microscopically using a scale of magnitude from 0 to 5:
The values assigned to the tumor necrosis 24 hours after administration of the test compound correspond solely to a necrosis dependent on the product which may be differentiated with certainty from any existing necrosis arising from the experiment.
The necrosis due to the experiment was assessed on an untreated control.
The tumor model is a C51 murine adenocarcinoma. This colon tumor is a grade III mucous colon […]. It is maintained by serial subcutaneous passages every 18 days in female BALB/c mice. The experiments were carried out on female BALB/c mice.

Tubulin = target: T1, Tubulin (Sus scrofa, UniProt P02550+P02554); experiment: Assessment of the inhibition of tubulin polymerization (turbidimetry); assay type: biochemical, pig; settings: tubulin 10 μM, turbidity at 350 nm, 37° C.
T1 construct: Tubulin is purified from pig brains according to the published methods; from tissue; host or cells: pig brain
Experimental: Tubulin is purified from pig brains according to the published methods (Shelanski et al., 1973, Proc. Natl, Acad. Sci. USA, 70, 765-768. Weingarten et al., 1975, Proc. Natl, Acad. Sci. USA, 72, 1858-1862). Briefly, the brains are ground and centrifuged in an extraction buffer. The tubulin, contained in the extract supernatant, is subjected to two successive cycles of polymerization at 37° C. and depolymerization at 4° C., before being separated from the MAPs (Microtubule Associated Proteins) by chromatography on a phosphocellulose P11 column (Whatman). The tubulin thus isolated is more than 95% pure. It is stored in a buffer known as RB/2 30% glycerol, the composition of which is MES-NaOH [2-(N-morpholino)ethanesulfonic acid] 50 mM, pH 6.8; MgCl2 0.25 mM; EGTA 0.5 mM; 30% glycerol (v/v), GTP (guanosine 5′-triphosphate) 0.2 mM.
The polymerization of the tubulin into microtubules is monitored by turbidimetry as follows; the tubulin is adjusted to a concentration of 10 μM (1 mg/ml) in the RB/2 30% glycerol buffer, to which is added 1 mM GTP and 6 mM MgCl2. The polymerization is initiated by increasing the temperature from 6° C. to 37° C. in a cuvette with a 1 cm optical pathlength, placed in a Uvikon 931 spectrophotometer (Kontron) equipped with a thermostatically-regulated cuvette holder. The increase in the turbidity of the solution is monitored at 350 nm.
The products are dissolved at 10 mM in DMSO and added at variable concentrations (0.5 to 10 μM) to the tubulin solution before polymerization. The IC50 value is defined as the concentration of product which inhibits 50% of the rate of polymerization. A product whose IC50 value is less than or equal to 3 μM is considered as very active.

HDMEC = experiment: Inhibition of cell proliferation, HDMEC; assay type: cell-based; settings: Homo sapiens

T1 sequence (P02550 whole entry): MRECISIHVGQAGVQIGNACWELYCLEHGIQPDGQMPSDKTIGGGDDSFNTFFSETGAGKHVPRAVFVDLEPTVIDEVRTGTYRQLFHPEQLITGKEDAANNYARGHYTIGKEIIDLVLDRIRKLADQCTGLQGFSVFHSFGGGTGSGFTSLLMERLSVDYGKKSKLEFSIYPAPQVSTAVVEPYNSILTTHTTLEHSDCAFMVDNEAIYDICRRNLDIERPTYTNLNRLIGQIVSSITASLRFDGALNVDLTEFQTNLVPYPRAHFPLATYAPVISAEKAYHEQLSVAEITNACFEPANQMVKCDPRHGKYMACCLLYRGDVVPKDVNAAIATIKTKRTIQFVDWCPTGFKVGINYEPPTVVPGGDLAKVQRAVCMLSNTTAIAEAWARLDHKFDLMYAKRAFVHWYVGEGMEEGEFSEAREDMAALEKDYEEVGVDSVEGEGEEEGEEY
T1 sequence (P02554 whole entry): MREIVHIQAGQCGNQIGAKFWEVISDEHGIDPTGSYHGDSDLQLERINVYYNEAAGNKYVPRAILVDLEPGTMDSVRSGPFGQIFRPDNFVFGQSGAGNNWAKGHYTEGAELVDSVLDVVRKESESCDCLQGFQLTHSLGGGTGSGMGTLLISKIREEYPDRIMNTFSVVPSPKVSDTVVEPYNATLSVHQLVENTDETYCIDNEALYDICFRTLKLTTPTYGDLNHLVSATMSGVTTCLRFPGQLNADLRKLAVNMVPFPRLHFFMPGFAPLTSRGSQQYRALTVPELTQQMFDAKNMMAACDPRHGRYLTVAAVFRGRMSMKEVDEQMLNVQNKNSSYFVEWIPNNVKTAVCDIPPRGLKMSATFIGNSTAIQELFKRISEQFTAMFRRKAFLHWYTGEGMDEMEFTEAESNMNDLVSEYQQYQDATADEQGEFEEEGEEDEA

Row | SMILES | Percentage of detachment of HDMEC cells induced with the compound at a concentration of 1 μM (HDMEC cells) [%] | C51 colon tumor necrosis in vivo (grade) ([1]; 50 mg/kg) | IC50 (Tubulin) [nM] | IC50 (HDMEC) [nM] | C51 colon tumor necrosis in vivo (grade) ([1]; 25 mg/kg) | melting point [°C]
1 | COc1cc(C(=O)/C(C)=C/c2ccc3c(c2)CCN3C)cc(OC)c1OC [Example 6, E-2-Methyl-3-(1-methyl-2,3-dihydro-1-H-indol-5-yl)-1-(3,4,5-trimethoxyphenyl)propenone] | 28 | Grade 5 at 50 (5=large, >75%) | 800 | 17 to 20 | – | –
2 | COc1ccc(C=C(C)C(=O)c2cc(OC)c(OC)c(OC)c2)cc1NC(=O)[C@@H](N)CCCCN.Cl.Cl [Example 10, (S)-2,6-Diaminohexanoic acid {2-methoxy-5-[2-methyl-3-oxo-3-(3,4,5-trimethoxyphenyl)propenyl]-phenyl}amide dihydrochloride] | 36 | – | – | 207 to 225 | Grade 5 at 25 (5=large, >75%) | –
3 | COc1ccc(/C=C(\C)C(=O)c2cc(OC)c(OC)c(OC)c2)cc1NC(=O)CN [Example 14, Aminoacetic acid {2-methoxy-5-[2-methyl-3-oxo-3-(3,4,5-trimethoxyphenyl)propenyl]phenyl}amide hydrochloride] | 36 | – | 25000 | 10 | Grade 5 at 25 (5=large, >75%) | –
4 | COc1cc(C(=O)/C(C)=C/c2ccc3[nH]ccc3c2)cc2c1OCO2 [Example 17, E-2-Methyl-3-(1-H-indol-5-yl)-1-(3-methoxy-4,5-methylenedioxyphenyl)propenone] | – | – | 800 | – | – | 140
5 | COc1cc(C(=O)/C(C)=C/c2ccc3c(ccn3CCN(C)C)c2)cc2c1OCO2 [Example 18, E-2-Methyl-3-[1-(2-dimethylaminoethyl)-1-H-indol-5-yl]-1-(3-methoxy-4,5-methylenedioxyphenyl)propenone] | – | – | 2000 | – | – | 118
